What was measured:
[1] = Biological activity level of mycolactones (test not specified)
[2] = test system: H460 lung cancer cells; assay: National Cancer Institute growth testing, H460; assay type: cell-based
Procedure: (§1) Acetone-soluble lipids (ASLs) were prepared from intact M. ulcerans cells as in Example 1, except that the acetone resuspension was applied to a preparative TLC plate to allow substantial separation of the ASLs based on relative mobility in the TLC system. The ASL with a mobility of 0.23 relative to the solvent front was scraped from the plate and resuspended.

[3] = test system: MCF-7 breast cancer cells; assay: National Cancer Institute growth testing, MCF-7; assay type: cell-based
Procedure: as §1

[4] = test system: SF-268 central nervous system cancer cells; assay: National Cancer Institute growth testing, SF-268; assay type: cell-based
Procedure: as §1

[5] = test system: infiltration of macrophages and polymorphonuclear neutrophils; assay: Inflammatory reaction at site of M. marinum infection in guinea pigs; assay type: in vivo, Hartley guinea pigs; conditions: 16 hours after infection
Procedure: Mycolactone was purified as in Example 2. Hartley guinea pigs were inoculated with an infectious quantity of M. marinum. When the inoculum was not accompanied by mycolactone, a painful, purulent lesion developed in the guinea pigs, indicative of an inflammatory reaction. In contrast, when mycolactone was injected into the locus, tissue necrosis still developed, but the infiltration of macrophages and polymorphonuclear neutrophils was delayed by 24 to 48 hours, resulting in greater than a 1,000-fold reduction in the number of neutrophils invading the site of infection 16 hours after infection. Inflammation, or the lack thereof, was confirmed by histopathological examination of paraffin embedded tissues stained with eosin and hematoxylin. While not desiring to be bound by any particular theory, it is believed that the subsequent inflammation that occurred in mycolactone-treated animals was partially a consequence of the continued growth of M. marinum. When the polyketide macrolides of the present invention are used to decrease inflammation at a site of infection, the inventive method is optionally accompanied by the administration of antibiotics.

With `C/C1=C/C[C@H]([C@@H](C)C/C(C)=C/[C@@H](C)[C@H](O)C[C@@H](C)O)OC(=O)CCC[C@H](OC(=O)/C=C/C(C)=C/C(C)=C/C=C/C(C)=C/[C@H](O)[C@@H](O)C[C@H](C)O)[C@@H](C)C1` [B] the “biological activity of isomers compared” value ([1]; isomers differing at the 4′ position) was “same biological activity”.

Work on `CC(=C/C(C)=C/C=C/C(C)=C/C(O)C(O)CC(C)O)/C=C/C(=O)OC1CCCC(=O)OC(C(C)C/C(C)=C/C(C)C(O)CC(C)O)C/C=C(\C)CC1C` (stereo not drawn) [mycolactone] yielded a relative growth rate [2] of −72%, a relative growth rate [3] of −78% and a relative growth rate [4] of −79%. The “reduction in the number of neutrophils invading the site of infection” value [5] was > 1,000 fold.

For `CC(=C\C=C\C(C)=C\C[C@@H](O)C[C@H](C)O)/C=C(C)/C=C/C(=O)O[C@H]1CCCC(=O)O[C@@H]([C@@H](C)C/C(C)=C/[C@@H](C)[C@H](O)C[C@@H](C)O)C/C=C(\C)C[C@@H]1C` [mycolactone C], the “activity level relative to the other mycolactones” value ([1]; mycolactone found in Australian isolates) was “about 10,000 fold lower”.
